# Measured values as given in US20200237764A1, “DRUG COMBINATIONS FOR TARGETING MULTIPLE MUTATIONS IN CANCER” (CureMatch, Inc., priority 2017, published 2020).
# Tested on: CAPAN2 cells
# Assay: WST-1 colorimetric cell viability assay in CAPAN2 cells
# Type: cell-based, human
# Details: for IC20 / IC50: Homo sapiens, Capan-2, CAPAN2 cell survival; for cell death: at 300 nM, 48 hrs
# Description: The human pancreatic cancer cell line CAPAN2, was purchased from the American Type Culture Collection (ATCC; Manassas, Va.). Cells were grown in McCoy's Modified 5A media supplemented with 10% FCS, 1× penicillin/streptomycin and 1× amphotericin. For testing, cells were released from the dishes by treatment with PBS (without calcium) for ˜30 min followed by 0.25% trypsin-EDTA for 5 minutes at 37 C. Cells were collected in a 15 ml centrifuge tube and spun down in a clinical centrifuge for 5 min and then re-suspended in 1 ml of fresh media and the cells were counted using a hemocytometer. Cells (1×10^3-5×10^3) were then seeded into 96-well plates in 100 μL of media and the cells were incubated for 48 hours. After 48 hours, the media was replaced and the cells were re-incubated for another 24 hours prior to treatment with the drugs.
# Stock drug solutions were prepared in complete media from master stock solutions prepared in DMSO according to the manufacturer's instructions. Using these stock solutions, 1:1, 2:1, 5:1, and 10:1 volume-volume (v/v) mixtures of regorafenib and trametinib were prepared. These mixtures were then two-fold serially diluted to generate a range of 20 concentrations in each case. The cells were incubated in drug mixtures for 48-72 hours before cell viability assay/assessment.
# Cell viability was determined using a WST-1 colorimetric cell proliferation assay (Roche), according to manufacturer's instructions. The stable tetrazolium salt WST-1 is cleaved to a soluble formazan by a complex cellular mechanism that occurs primarily at the cell surface. This reduction is largely dependent on the glycolytic production of NAD(P)H in viable cells. Therefore, the amount of formazan dye formed, and estimated using a spectrophotometer (BIO-TEK 340, BIOTEK) directly correlates to the number of metabolically active cells in the culture. All testing points were done at least in triplicate.
# [1] = monotherapy, two-fold serial dilution 2 nM to 1 mM, 48-72 hours
SMILES,"effect on CAPAN2 cell survival (in words) (CAPAN2 cells, 48-72 hours)","maximum decrease in cell viability (CAPAN2 cells, concentration of 1 mM, 48-72 hours) [%]",IC20 [1] [nM],cell death (CAPAN2 cells) [%],"IC50 (100 μM to 0.2 nM, 48-72 hours) [nM]",IC20 (48-72 hours) [nM],IC50 (2 nM to 1 mM) [nM]
Nc1ccn([C@@H]2O[C@H](CO)[C@@H](O)C2(F)F)c(=O)n1 [gemcitabine],"little, if any, effect on cell survival",−30,111000,,,,
CC(=O)Nc1cccc(-n2c(=O)n(C3CC3)c(=O)c3c(Nc4ccc(I)cc4F)n(C)c(=O)c(C)c32)c1 [trametinib],,,,−10,28,4,
CNC(=O)c1cc(Oc2ccc(NC(=O)Nc3ccc(Cl)c(C(F)(F)F)c3)c(F)c2)ccn1 [regorafenib],significant reduction in cell survival,,2000,−2,,,7100
